Reference: article PMC12707263 (ACS Pharmacology & Translational Science, 2025)
Entries after “also recorded” stand apart in the source; their conditions may differ.

Key:
[1] = test system: 24 kinase targets associated with B-cell malignancy signaling cascades; experiment: HotSpot profile across the panel; format: biochemical
[2] = reported values; ref not given; cited from earlier work
OCI-Ly10 cells = experiment: Pairwise 10 × 10 matrix combination with venetoclax, Cell Titer Glo viability; conditions: for synergistic cell killing when combined with venetoclax: ΔBlissSum
REC-1 cells = experiment: as above; conditions: venetoclax 10000 nM to 39 nM
HBL1 cells = experiment: as above; conditions: venetoclax 1000 nM to 3.9 nM

| Compound | off-target profile across the 24 kinase panel [1] | fraction unbound (FU) [2] [% FU] | synergistic cell killing when combined with venetoclax (OCI-Ly10 cells) | further results |
| --- | --- | --- | --- | --- |
| CC#CC(=O)N1CCC[C@H]1c1nc(-c2ccc(C(=O)Nc3ccccn3)cc2)c2c(N)nccn12 [Acalabrutinib] | most selective; also recorded: remarkably free of any additional off target activity | 2.5 | more focal in nature |  |
| CC#CC(=O)N[C@H]1CCCN(c2c(F)cc(C(N)=O)c3[nH]c(C)c(C)c23)C1 [Branebrutinib] | remarkably free of any additional off target activity | 1.2 |  |  |
| C=CC(=O)N1CCC(CNc2ncnc(N)c2-c2ccc(Oc3ccccc3)cc2)CC1 [Evobrutinib] | remarkably free of any additional off target activity |  |  |  |
| C[C@H]1CN(C2COC2)CCN1c1ccc(Nc2cc(-c3ccnc(N4CCn5c(cc6c5CC(C)(C)C6)C4=O)c3CO)cn(C)c2=O)nc1 [Fenebrutinib] | most selective; also recorded: remarkably free of any additional off target activity |  |  |  |
| C=CC(=O)N1CCC[C@@H](n2nc(-c3ccc(Oc4ccccc4)cc3)c3c(N)ncnc32)C1 [Ibrutinib] | most promiscuous beyond BMX and BLK |  |  |  |
| C=CC(=O)Nc1cccc(Oc2nc(Nc3ccc(N4CCN(C)CC4)cc3)nc3ccoc23)c1 [Poseltinib] | most promiscuous beyond BMX and BLK |  | more focal in nature |  |
| C=CC(=O)N(C)CCOc1c(N)ncnc1-c1cc(F)cc(NC(=O)c2ccc(C3CC3)cc2F)c1C [Remibrutinib] | most selective; also recorded: remarkably free of any additional off target activity |  | similar, broad synergistic cell killing across multiple concentration ranges |  |
| CC(C)(/C=C(\C#N)C(=O)N1CCC[C@@H](n2nc(-c3ccc(Oc4ccccc4)cc3F)c3c(N)ncnc32)C1)N1CCN(C2COC2)CC1 [Rilzabrutinib] | remarkably free of any additional off target activity |  | similar, broad synergistic cell killing across multiple concentration ranges |  |
| CC#CC(=O)N1CC[C@@H](n2c(=O)n(-c3ccc(Oc4ccccc4)cc3)c3c(N)ncnc32)C1 [Tirabrutinib] | most selective; also recorded: remarkably free of any additional off target activity | 8.3 |  |  |
| CC1(C)CCC(CN2CCN(c3ccc(C(=O)NS(=O)(=O)c4ccc(NCC5CCOCC5)c([N+](=O)[O-])c4)c(Oc4cnc5[nH]ccc5c4)c3)CC2)=C(c2ccc(Cl)cc2)C1 [Venetoclax] |  |  |  | single agent activity (cytotoxicity) (REC-1 cells): no single agent activity; single agent activity (cytotoxicity) (OCI-Ly10 cells; venetoclax 1000 nM to 3.9 nM): no single agent activity; single agent activity (cytotoxicity) (HBL1 cells): no single agent activity |
| C=CC(=O)N1CCC([C@@H]2CCNc3c(C(N)=O)c(-c4ccc(Oc5ccccc5)cc4)nn32)CC1 [Zanubrutinib] | most promiscuous beyond BMX and BLK | 6 | similar, broad synergistic cell killing across multiple concentration ranges |  |
